Laboratory results reported in PubChem BioAssay AID1963981 (Molecular Pharmacology Branch, DTP, NCI, 2024).

Test system: 354836-022-R-J1-PDC multicell spheroid viability
Test: Anticancer human tumor 354836-022-R-J1-PDC patient-derived head and neck squamous cell carcinoma cell line growth inhibition [PI3K]
Details: for IC50: curve of first compound; for viability, T/C: stronger effect = lower value
Outline: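 High-throughput combination screen: PI3K inhibitors crossed with targeted small molecules on complex spheroids of tumor cells, HUVEC and MSCs at 37 degrees C, 5% CO2. Top concentration was at or near clinical Cmax (otherwise 10 microM), with half-log decrements.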

[1] = second compound 0.0316 µM, first compound 0.0316 µM
[2] = second compound 0.0316 µM, first compound 0.1 µM
[3] = second compound 0.0316 µM, first compound 0.316 µM
[4] = second compound 0.0316 µM, first compound 1 µM
[5] = second compound 0.0316 µM, first compound 3.16 µM
[6] = second compound 0.0316 µM, first compound 10 µM
[7] = second compound 0.1 µM, first compound 0.0316 µM
[8] = second compound 0.1 µM, first compound 0.1 µM
[9] = second compound 0.1 µM, first compound 0.316 µM
[10] = second compound 0.1 µM, first compound 1 µM
[11] = second compound 0.1 µM, first compound 3.16 µM
[12] = second compound 0.1 µM, first compound 10 µM
[13] = second compound 0.316 µM, first compound 0.0316 µM
[14] = second compound 0.316 µM, first compound 0.1 µM
[15] = second compound 0.316 µM, first compound 0.316 µM
[16] = second compound 0.316 µM, first compound 1 µM
[17] = second compound 0.316 µM, first compound 3.16 µM
[18] = second compound 0.316 µM, first compound 10 µM
[19] = second compound 1 µM, first compound 0.0316 µM
[20] = second compound 1 µM, first compound 0.1 µM
[21] = second compound 1 µM, first compound 0.316 µM
[22] = second compound 1 µM, first compound 1 µM
[23] = second compound 1 µM, first compound 3.16 µM
[24] = second compound 1 µM, first compound 10 µM
[25] = second compound 3.16 µM, first compound 0.0316 µM
[26] = second compound 3.16 µM, first compound 0.1 µM
[27] = second compound 3.16 µM, first compound 0.316 µM
[28] = second compound 3.16 µM, first compound 1 µM
[29] = second compound 3.16 µM, first compound 3.16 µM
[30] = second compound 3.16 µM, first compound 10 µM
[31] = second compound 10 µM, first compound 0.0316 µM
[32] = second compound 10 µM, first compound 0.1 µM
[33] = second compound 10 µM, first compound 0.316 µM
[34] = second compound 10 µM, first compound 1 µM
[35] = second compound 10 µM, first compound 3.16 µM
[36] = second compound 10 µM, first compound 10 µM
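Also: spheroids exposed to agents for seven days before the viability read.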

Compound: C#Cc1c(F)ccc2cc(O)cc(-c3ncc4c(N5CC6CCC(C5)N6)nc(OCC56CCCN5CC(F)C6)nc4c3F)c12 (stereo unspecified) + CC(Nc1ncnc2nc[nH]c12)c1cc2cccc(Cl)c2c(=O)n1-c1ccccc1
- IC50 (second compound 0.0316 µM): > 10 µM
- IC50 (second compound 0.1 µM): > 10 µM
- IC50 (second compound 0.316 µM): > 10 µM
- IC50 (second compound 1 µM): > 10 µM
- IC50 (second compound 3.16 µM): > 10 µM
- IC50 (second compound 10 µM): > 10 µM
- viability, T/C [1]: 94.8%
- viability, T/C [2]: 85%
- viability, T/C [3]: 88.6%
- viability, T/C [4]: 105%
- viability, T/C [5]: 85.5%
- viability, T/C [6]: 96.4%
- viability, T/C [7]: 84.9%
- viability, T/C [8]: 105%
- viability, T/C [9]: 96.4%
- viability, T/C [10]: 96.2%
- viability, T/C [11]: 110%
- viability, T/C [12]: 102%
- viability, T/C [13]: 85.4%
- viability, T/C [14]: 110%
- viability, T/C [15]: 103%
- viability, T/C [16]: 108%
- viability, T/C [17]: 98.3%
- viability, T/C [18]: 89.9%
- viability, T/C [19]: 91.1%
- viability, T/C [20]: 86.9%
- viability, T/C [21]: 100%
- viability, T/C [22]: 92.3%
- viability, T/C [23]: 96.4%
- viability, T/C [24]: 74.9%
- viability, T/C [25]: 95.4%
- viability, T/C [26]: 105%
- viability, T/C [27]: 96.3%
- viability, T/C [28]: 110%
- viability, T/C [29]: 99%
- viability, T/C [30]: 70%
- viability, T/C [31]: 95.3%
- viability, T/C [32]: 82.5%
- viability, T/C [33]: 84.5%
- viability, T/C [34]: 80.8%
- viability, T/C [35]: 78.4%
- viability, T/C [36]: 75.1%

Compound: C=CC(=O)N1CCN(c2nc(=O)n(-c3c(C)ccnc3C(C)C)c3nc(-c4c(O)cccc4F)c(F)cc23)C(C)C1 (stereo unspecified) + CC(Nc1ncnc2nc[nH]c12)c1cc2cccc(Cl)c2c(=O)n1-c1ccccc1
- IC50 (second compound 0.0316 µM): > 10 µM
- IC50 (second compound 0.1 µM): > 10 µM
- IC50 (second compound 0.316 µM): > 10 µM
- IC50 (second compound 1 µM): > 10 µM
- IC50 (second compound 3.16 µM): > 10 µM
- IC50 (second compound 10 µM): > 10 µM
- viability, T/C [1]: 93.1%
- viability, T/C [2]: 84.5%
- viability, T/C [3]: 103%
- viability, T/C [4]: 103%
- viability, T/C [5]: 98.7%
- viability, T/C [6]: 94.1%
- viability, T/C [7]: 98.7%
- viability, T/C [8]: 94.5%
- viability, T/C [9]: 96.4%
- viability, T/C [10]: 115%
- viability, T/C [11]: 108%
- viability, T/C [12]: 95.5%
- viability, T/C [13]: 110%
- viability, T/C [14]: 106%
- viability, T/C [15]: 103%
- viability, T/C [16]: 116%
- viability, T/C [17]: 106%
- viability, T/C [18]: 88.1%
- viability, T/C [19]: 103%
- viability, T/C [20]: 98.4%
- viability, T/C [21]: 108%
- viability, T/C [22]: 102%
- viability, T/C [23]: 98.7%
- viability, T/C [24]: 97.7%
- viability, T/C [25]: 96%
- viability, T/C [26]: 114%
- viability, T/C [27]: 106%
- viability, T/C [28]: 115%
- viability, T/C [29]: 115%
- viability, T/C [30]: 93.2%
- viability, T/C [31]: 98%
- viability, T/C [32]: 89.4%
- viability, T/C [33]: 90.1%
- viability, T/C [34]: 99.2%
- viability, T/C [35]: 102%
- viability, T/C [36]: 88.1%

Compound: CC(Cn1ccc(-c2ccc(C#N)c(Cl)c2)n1)NC(=O)c1cc(C(C)O)[nH]n1 (stereo unspecified) + CC(Nc1ncnc2nc[nH]c12)c1cc2cccc(Cl)c2c(=O)n1-c1ccccc1
- IC50 (second compound 0.0316 µM): > 10 µM
- IC50 (second compound 0.1 µM): > 10 µM
- IC50 (second compound 0.316 µM): > 10 µM
- IC50 (second compound 1 µM): > 10 µM
- IC50 (second compound 3.16 µM): > 10 µM
- IC50 (second compound 10 µM): > 10 µM
- viability, T/C [1]: 99.3%
- viability, T/C [2]: 91.8%
- viability, T/C [3]: 96.6%
- viability, T/C [4]: 112%
- viability, T/C [5]: 97.7%
- viability, T/C [6]: 84.4%
- viability, T/C [7]: 87.8%
- viability, T/C [8]: 102%
- viability, T/C [9]: 89.6%
- viability, T/C [10]: 104%
- viability, T/C [11]: 85%
- viability, T/C [12]: 93.3%
- viability, T/C [13]: 91.2%
- viability, T/C [14]: 90.6%
- viability, T/C [15]: 97.6%
- viability, T/C [16]: 87.9%
- viability, T/C [17]: 101%
- viability, T/C [18]: 89.1%
- viability, T/C [19]: 106%
- viability, T/C [20]: 91.4%
- viability, T/C [21]: 93.1%
- viability, T/C [22]: 108%
- viability, T/C [23]: 83.5%
- viability, T/C [24]: 78.8%
- viability, T/C [25]: 113%
- viability, T/C [26]: 96.8%
- viability, T/C [27]: 95%
- viability, T/C [28]: 97.2%
- viability, T/C [29]: 90.7%
- viability, T/C [30]: 83.7%
- viability, T/C [31]: 96.5%
- viability, T/C [32]: 93.2%
- viability, T/C [33]: 83.8%
- viability, T/C [34]: 96.9%
- viability, T/C [35]: 95.2%
- viability, T/C [36]: 75.7%
